Entries after “also recorded” stand apart in the source; their conditions may differ.
Key:
MDA-MB-435S = MDA-MB-435S nude mouse xenograft model; assay type: in vivo; details: 300 mg/kg IP, 5 times per week for 3 weeks, nude mice; FIG. 4
Procedure: FBS was obtained from Sigma-Aldrich Corp. (St. Louis, Mo., USA), and all other reagents were obtained from Invitrogen Corp. (Carlsbad, Calif., USA). Approximately 4-5×10(6) cells that had been cryopreserved in liquid nitrogen were rapidly thawed at 37° C. and transferred to a 175 cm^2 tissue culture flask containing 50 ml of growth media and then incubated at 37° C. in a 5% CO2 incubator. The growth media was replaced every 2-3 days until the flask became 90% confluent, typically in 5-7 days. To passage and expand the cell line, a 90% confluent flask was washed with 10 ml of room temperature phosphate buffered saline (PBS) and the cells were disassociated by adding 5 ml 1× Trypsin-EDTA (Invitrogen) and incubating at 37° C. until the cells detached from the surface of the flask. To inactivate the trypsin, 5 ml of growth media was added and then the contents of the flask were centrifuged to pellet the cells. The supernatant was aspirated and the cell pellet was resuspended in 10 ml of growth media and the cell number determined using a hemocytometer. […]
Six to eight week old, female Crl:CD-1-nuBR (nude) mice were obtained from Charles River Laboratories (Wilmington, Mass., USA). […] Tumor volumes (V) were calculated by caliper measurement of the width (W), length (L) and thickness (T) of tumors using the following formula: V=[…]×(L×W×T). […]

Her2 = experiment: IC50 range for inhibition of Her2 degradation (Table 8); assay type: cell-based; details: Homo sapiens
Procedure: Human high-Her2 breast carcinoma BT474 (HTB-20), SK-BR-3 (HTB-30) and MCF-7 breast carcinoma (HTB-22) from American Type Culture Collection, VA, USA were grown in Dulbecco's modified Eagle's medium with 4 mM L-glutamine and antibiotics (100 IU/ml penicillin and 100 ug/ml streptomycine; GibcoBRL). To obtain exponential cell growth, cells were trypsinized, counted and seeded at a cell density of 0.5×10^6 cells/ml regularly, every 3 days. All experiments were performed on day 1 after cell passage. […]
After treatment with a compound of the invention, cells were washed twice with 1×PBS/1% FBS, and then stained with anti-Her2-FITC (#340553, BD) for 30 min at 4° C. Cells were then washed three times in FACS buffer before the fixation in 0.5 ml 1% paraformadehydrede. Data was acquired on a FACSCalibur system. Isotype-matched controls were used to establish the non-specific staining of samples and to set the fluorescent markers. A total 10,000 events were recorded from each sample. Data were analysed by using CellQuest software (BD Biosciences).

SU-DHL-4 = SU-DHL-4 non-Hodgkin's lymphoma SCID mouse xenograft; assay type: in vivo; details: for % T/C value: FIG. 6
Procedure: The human non-Hodgkin's lymphoma tumor cell line, SU-DHL-4 (DSMZ #ACC 495), sub-classified as a GCB-type diffuse large B-cell lymphoma, was obtained from Deutsche Sammlung von Mikroorganismen und Zellkulturen GmbH (DSMZ; Braunschweig, Germany). […] FBS was obtained from ATCC and all other reagents were obtained from Invitrogen Corp. (Carlsbad, Calif., USA). Approximately 3-4×10(7) cells that had been cryopreserved in liquid nitrogen were rapidly thawed at 37° C. and transferred to a 175 cm^2 tissue culture flask containing 50 ml of growth media and then incubated at 37° C. in a 5% CO2 incubator. To passage and expand the cell line, the contents of a flask were centrifuged to pellet the cells, the supernatant was aspirated and the cell pellet was resuspended in 10 ml of growth media and the cell number determined using a hemocytometer. Approximately 3-4×10(7) cells per flask were seeded into 175 cm^2 flasks containing 50 ml of growth media and incubated at 37° C. in a 5% CO2 incubator. The above passaging process was repeated every 2-3 days until sufficient cells had been obtained for implantation into mice.
(§1) Seven to eight week old, female CB17/Icr-Prkdc^scid/Crl (SCID) mice were obtained from Charles River Laboratories (Wilmington, Mass., USA). Animals were housed 4-5/cage in micro-isolators, with a 12 hr/12 hr light/dark cycle, acclimated for at least 1 week prior to use and fed normal laboratory chow ad libitum. Studies were conducted on animals that were between 8 and 12 weeks of age at the time of tumor cell implantation. […] Using a 27 gauge needle and 1 cc syringe, 0.1 ml of the cell suspension was injected subcutaneously into the shaved flanks of SCID mice. To implant SU-DHL-4 tumor cells into SCID mice, cell cultures were centrifuged to pellet the cells, the supernatant was aspirated and the cell pellet was resuspended in 10 ml of growth media and the cell number determined using a hemocytometer, washed in PBS and resuspended at a concentration of 10×10(7) cells/ml in 50% PBS and 50% Matrigel Basement Membrane Matrix (#354234; BD Biosciences; Bedford, Mass., USA). Using a 27 gauge needle and 1 cc syringe, 0.1 ml of the cell suspension was injected subcutaneously into the shaved flanks of SCID mice.
Tumors were then permitted to develop in vivo until the majority reached 100-200 mm^3 in tumor volume, which typically required 2-3 weeks following implantation. […] Tumor volumes (V) were calculated by caliper measurement of the width (W), length (L) and thickness (T) of tumors using the following formula: V=0.5236×(L×W×T). Animals were randomized into treatment groups so that the median tumor volumes of each group were similar at the start of dosing. % T/C values, as a measure of efficacy, were determined as follows: • (i) If ΔT>0: % T/C=(ΔT/ΔC)×100 • (ii) If ΔT<0: % T/C=(ΔT/T0)×100 • (iii) ΔT=Change in median tumor volume between start of dosing and the end of study. • (iv) ΔC=Change in median tumor volume between start of dosing and the end of study. • (v) T0=Median tumor volume at start of dosing.
To formulate Compound #226 in DRD, stock solutions of the test article were prepared by dissolving the appropriate amounts of the compound in dimethyl sulfoxide (DMSO) by sonication in an ultrasonic water bath. Stock solutions were prepared weekly, stored at −20° C. and diluted fresh each day for dosing. A solution of 20% Cremophore RH40 (polyoxyl 40 hydrogenated castor oil; BASF Corp., Aktiengesellschaft, Ludwigshafen, Germany) in 5% dextrose in water (Abbott Laboratories, North Chicago, Ill., USA) was also prepared by first heating 100% Cremophore RH40 at 50-60° C. until liquefied and clear, diluting 1:5 with 100% D5W, reheating again until clear and then mixing well. This solution was stored at room temperature for up to 3 months prior to use. To prepare DRD formulations for daily dosing, DMSO stock solutions were diluted 1:10 with 20% Cremophore RH40. […]

Daudi = Daudi non-Hodgkin's lymphoma SCID mouse xenograft; assay type: in vivo; details: 25 mg/kg i.v., 5 times per week, 15 doses
Procedure: FBS was obtained from ATCC and all other reagents were obtained from Invitrogen Corp. (Carlsbad, Calif., USA). Cells that had been cryopreserved in liquid nitrogen were rapidly thawed at 37° C. and transferred to a tissue culture flask containing growth media and then incubated at 37° C. in a 5% CO2 incubator. To expand the cell line, cultures were passaged 1:2 to a density of 5×10(6) cells/ml every three days by adding an equal volume of fresh growth media. When the flasks reached a density of approximately 10×10(6) cells/ml, the above passaging process was repeated until sufficient cells had been obtained for implantation into mice.
as §1
Tumors were then permitted to develop in vivo until the majority reached 100-200 mm^3 in tumor volume, which typically required 2-3 weeks following implantation. […] Tumor volumes (V) were calculated by caliper measurement of the width (W), length (L) and thickness (T) of tumors using the following formula: V=0.5236×(L×W×T). […]

**Q.** Which results are given for `CCc1cc(-c2nnc(S)n2-c2cccc3ccccc23)c(O)cc1O` [Compound 49, 3-(2,4-Dihydroxy-5-ethyl-phenyl)-4-(naphthalen-1-yl)-5-mercapto-triazole]?
**A.** toxicity (effect on body weights) (MDA-MB-435S): not associated with significant toxicity; also recorded: not toxic; IC50 (Her2): < 3000 nM

**Q.** How did the “% T/C value” (SU-DHL-4; 50 mg/kg i.v., 2 times per week, 4 doses, SCID mice) turn out when `CC(C)c1cc(-c2nnc(O)n2-c2ccc3c(ccn3C)c2)c(O)cc1O` [Compound 226, 3-(2,4-dihydroxy-5-isopropyl-phenyl)-4-(1-methyl-indol-5-yl)-5-hydroxy-[1,2,4] triazole] was run?
**A.** The value was 34.9%.

**Q.** What about the “% T/C value” (SU-DHL-4; 75 mg/kg i.v., 2 times per week, 4 doses, SCID mice) of the same compound?
**A.** Its value is 8.1%.

**Q.** And the “% T/C value” (SU-DHL-4; 100 mg/kg i.v., 2 times per week, 4 doses, SCID mice)?
**A.** Its value is −10.4%.

**Q.** And the overt toxicity (SU-DHL-4; 50, 75 and 100 mg/kg i.v., 2 times per week, 4 doses, SCID mice)?
**A.** Its overt toxicity is “not associated with overt toxicity; also recorded: Overt toxicity was not observed”.

**Q.** What about the “average bodyweight loss relative to the start of the study” value (SU-DHL-4; highest dose group 100 mg/kg i.v., 2 times per week, 4 doses, day 31) of the same compound?
**A.** Its value is −4.2%.

**Q.** And the average bodyweight loss (SU-DHL-4; over the course of the study, dose not stated (text on FIG. 6))?
**A.** Its average bodyweight loss is −1.0%.

**Q.** What about the overt toxicity (Daudi; SCID mice) of the same compound?
**A.** Its overt toxicity is “not associated with overt toxicity; also recorded: Overt toxicity was not observed”.

**Q.** What about the “% T/C value” (Daudi; SCID mice, FIG. 5) of the same compound?
**A.** The value was 1.5%.

**Q.** And the “average bodyweight loss relative to the start of the study” value (Daudi; day 41 / over the course of the study)?
**A.** The value was −1.0%.
